Measurements: patent US20250136570A1 (Tango Therapeutics, Inc., priority 2021, published 2025)

What was measured:
HDAC3/NCor2 = HDAC3/NCor2 (Homo sapiens (Human), UniProt O15379); test: HDAC3 inhibition, Fluor de Lys fluorescent enzyme assay; assay type: biochemical; settings: 3 hours pre-incubation at room temp; 1.2 nM enzyme; 16 μM Fluor de Lys substrate; duplicate
Summary of the method: (§1)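 Enzyme (HDAC1 6 nM, HDAC3/NCor2 1.2 nM final) pre-incubated with compound 3 h at ~22 °C in Tris pH 8 buffer with 0.01% BSA. Reaction run 1 h with 16 μM Fluor de Lys substrate and stopped with TSA-containing developer. Fluorescence read at Ex 360/Em 460; IC50 from an occupancy equation with Hill coefficient, in duplicate.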

Recombinant HDAC1 = Recombinant HDAC1 (Homo sapiens (Human), UniProt Q13547); test: HDAC1 inhibition, Fluor de Lys fluorescent enzyme assay; assay type: biochemical; settings: 3 hours pre-incubation at room temp; 6 nM enzyme; 16 μM Fluor de Lys substrate; duplicate
Summary of the method: as §1

HDAC3/NCor2, sequence (O15379 whole entry): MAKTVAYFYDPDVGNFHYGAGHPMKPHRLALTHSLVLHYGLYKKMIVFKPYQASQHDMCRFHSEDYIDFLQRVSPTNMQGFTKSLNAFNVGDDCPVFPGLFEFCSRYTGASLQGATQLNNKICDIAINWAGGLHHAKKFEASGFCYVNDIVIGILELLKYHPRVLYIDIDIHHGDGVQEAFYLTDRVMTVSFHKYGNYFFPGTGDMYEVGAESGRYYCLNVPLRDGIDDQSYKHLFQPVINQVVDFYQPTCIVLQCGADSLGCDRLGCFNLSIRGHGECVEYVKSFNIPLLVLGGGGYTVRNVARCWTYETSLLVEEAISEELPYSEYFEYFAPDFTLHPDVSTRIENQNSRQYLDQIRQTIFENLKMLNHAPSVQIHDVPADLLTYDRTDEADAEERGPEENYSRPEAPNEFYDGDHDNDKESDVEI
HDAC3/NCor2, sequence (Q9Y618 395-489 partner): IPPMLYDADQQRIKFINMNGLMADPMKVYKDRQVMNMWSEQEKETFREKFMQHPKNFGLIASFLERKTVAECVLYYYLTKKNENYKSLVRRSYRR
Recombinant HDAC1, sequence (Q13547 whole entry): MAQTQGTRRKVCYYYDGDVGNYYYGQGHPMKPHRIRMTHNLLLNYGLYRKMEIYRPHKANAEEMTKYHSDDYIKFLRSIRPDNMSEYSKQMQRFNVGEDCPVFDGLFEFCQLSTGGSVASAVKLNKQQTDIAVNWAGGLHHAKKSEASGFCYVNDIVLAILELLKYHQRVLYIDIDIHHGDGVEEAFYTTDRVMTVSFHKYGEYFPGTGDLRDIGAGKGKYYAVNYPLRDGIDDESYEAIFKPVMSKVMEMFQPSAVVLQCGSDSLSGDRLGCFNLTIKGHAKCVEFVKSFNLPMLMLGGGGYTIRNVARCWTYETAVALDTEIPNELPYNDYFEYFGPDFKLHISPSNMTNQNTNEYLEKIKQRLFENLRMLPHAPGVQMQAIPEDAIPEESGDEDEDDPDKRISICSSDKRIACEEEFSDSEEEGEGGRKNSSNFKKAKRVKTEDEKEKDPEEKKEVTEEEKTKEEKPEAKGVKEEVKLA

Row | Compound | IC50 (HDAC3/NCor2) [nM] | IC50 (Recombinant HDAC1) [nM]
1 | CS(=O)(=NC1CC1)c1ccc2oc(C(=O)Nc3cc(-c4ccc(F)cc4)ccc3N)cc2c1 (stereo not drawn) [Compound 230, N-[2-amino-5-(4-fluorophenyl)phenyl]-5-(N-cyclopropyl-S-methyl-sulfonimidoyl)benzofuran-2-carboxamide] | 500 to 2000 | < 100
2 | Cc1ccc(S(=N)(=O)c2ccc(C(=O)Nc3cc(-c4ccc(F)cc4)ccc3N)cc2)cn1 (stereo not drawn) [Compound 233, N-[2-amino-5-(4-fluorophenyl)phenyl]-4-[(6-methyl-3-pyridyl)sulfonimidoyl]benzamide] | 500 to 2000 | < 100
3 | N=S(=O)(c1ccc(C(=O)Nc2cc(-c3ccc(F)cc3)ccc2N)cc1)c1cnc(O)nc1 (stereo not drawn) [Compound 234, N-[2-amino-5-(4-fluorophenyl)phenyl]-4-[(2-hydroxypyrimidin-5-yl)sulfonimidoyl]benzamide] | > 2000 | < 100
4 | CS(=N)(=O)c1cc2ccc(C(=O)Nc3cc(-c4ccc(F)cc4)ccc3N)cc2s1 (stereo not drawn) [Compound 236, N-[2-amino-5-(4-fluorophenyl)phenyl]-2-(methylsulfonimidoyl)benzothiophene-6-carboxamide] | 100 to 500 | < 100
5 | CCN=S(C)(=O)c1ccc2oc(C(=O)Nc3cc(-c4ccc(F)cc4)ccc3N)cc2c1 (stereo not drawn) [Compound 237, N-[2-amino-5-(4-fluorophenyl)phenyl]-5-(N-ethyl-S-methyl-sulfonimidoyl)benzofuran-2-carboxamide] | 500 to 2000 | < 100
6 | N=S(=O)(c1ccc(C(=O)Nc2cc(-c3ccc(F)cc3)ccc2N)cc1)c1cncc(Cl)c1 (stereo not drawn) [Compound 245, N-(4-amino-4′-fluoro-[1,1′-biphenyl]-3-yl)-4-(5-chloropyridine-3-sulfonimidoyl)benzamide] | 500 to 2000 | < 100
7 | CS(=N)(=O)c1ccc(C(=O)Nc2cc(-c3ccsc3)ccc2N)cc1 (stereo not drawn) [Compound 249, N-[2-amino-5-(3-thienyl)phenyl]-4-(methylsulfonimidoyl)benzamide] | 500 to 2000 | < 100
8 | COc1ncc(S(=N)(=O)c2ccc(C(=O)Nc3cc(-c4ccc(F)cc4)ccc3N)cc2)[nH]1 (stereo not drawn) [Compound 252, N-[2-amino-5-(4-fluorophenyl)phenyl]-4-[(2-methoxy-1H-imidazol-5-yl)sulfonimidoyl]benzamide] | > 2000 | < 100
9 | CS(=N)(=O)c1cc2sc(C(=O)Nc3cc(-c4ccc(F)cc4)ccc3N)cc2cn1 (stereo not drawn) [Compound 253, N-[2-amino-5-(4-fluorophenyl)phenyl]-6-(methylsulfonimidoyl)thieno[3,2-c]pyridine-2-carboxamide] | 500 to 2000 | < 100
10 | CS(=N)(=O)c1ccc2sc(C(=O)Nc3cc(-c4ccc(F)cc4)ccc3N)cc2n1 (stereo not drawn) [Compound 254, N-[2-amino-5-(4-fluorophenyl)phenyl]-5-(methylsulfonimidoyl)thieno[3,2-b]pyridine-2-carboxamide] | 100 to 500 | < 100
11 | N=S(=O)(c1ccc(C(=O)Nc2cc(-c3ccc(F)cc3)ccc2N)cc1)c1ccc(C(F)(F)F)cc1 (stereo not drawn) [Compound 256, N-[2-amino-5-(4-fluorophenyl)phenyl]-4-[[4-(trifluoromethyl)phenyl]sulfonimidoyl]benzamide] | > 2000 | < 100

The remaining lines, values ahead:

Row | IC50 (HDAC3/NCor2) [nM] | IC50 (Recombinant HDAC1) [nM] | Compound
12 | 500 to 2000 | < 100 | Cc1ccc(S(=N)(=O)c2ccc(C(=O)Nc3cc(-c4ccc(F)cc4)ccc3N)cc2)nc1 (stereo not drawn) [Compound 231, N-[2-amino-5-(4-fluorophenyl)phenyl]-4-[(5-methyl-2-pyridyl)sulfonimidoyl]benzamide]
13 | > 2000 | < 100 | N#Cc1cncc(S(=N)(=O)c2ccc(C(=O)Nc3cc(-c4ccc(F)cc4)ccc3N)cc2)c1 (stereo not drawn) [Compound 232, N-(4-amino-4′-fluoro-[1,1′-biphenyl]-3-yl)-4-(5-cyanopyridine-3-sulfonimidoyl)benzamide]
14 | 500 to 2000 | < 100 | Cc1ncc(S(=N)(=O)c2ccc(C(=O)Nc3cc(-c4ccc(F)cc4)ccc3N)cc2)cn1 (stereo not drawn) [Compound 235, N-[2-amino-5-(4-fluorophenyl)phenyl]-4-[(2-methylpyrimidin-5-yl)sulfonimidoyl]benzamide]
15 | 500 to 2000 | < 100 | N#Cc1ccc(S(=N)(=O)c2ccc(C(=O)Nc3cc(-c4ccc(F)cc4)ccc3N)cc2)cn1 (stereo not drawn) [Compound 239, N-[2-amino-5-(4-fluorophenyl)phenyl]-4-[(6-cyano-3-pyridyl)sulfonimidoyl]benzamide]
16 | 500 to 2000 | < 100 | COc1ccncc1S(=N)(=O)c1ccc(C(=O)Nc2cc(-c3ccc(F)cc3)ccc2N)cc1 (stereo not drawn) [Compound 240, N-[2-amino-5-(4-fluorophenyl)phenyl]-4-[(4-methoxy-3-pyridyl)sulfonimidoyl]benzamide]
17 | > 2000 | > 2000 | CC(=O)c1ccc(-c2ccc(N)c(NC(=O)c3ccc(S(C)(=N)=O)cc3)c2)s1 (stereo not drawn) [Compound 241, N-[5-(5-acetyl-2-thienyl)-2-amino-phenyl]-4-(methylsulfonimidoyl)benzamide]
18 | 500 to 2000 | < 100 | Cn1cncc1S(=N)(=O)c1ccc(C(=O)Nc2cc(-c3ccc(F)cc3)ccc2N)cc1 (stereo not drawn) [Compound 242, N-[2-amino-5-(4-fluorophenyl)phenyl]-4-[(3-methylimidazol-4-yl)sulfonimidoyl]benzamide]
19 | > 2000 | < 100 | CC1CCS(=O)(c2ccc(C(=O)Nc3cc(-c4ccc(F)cc4)ccc3N)cc2)=N1 (stereo not drawn) [Compound 244]
20 | 500 to 2000 | < 100 | COCCOCc1ccc(S(=N)(=O)c2ccc(C(=O)Nc3cc(-c4ccc(F)cc4)ccc3N)cc2)cn1 (stereo not drawn) [Compound 246, N-[2-amino-5-(4-fluorophenyl)phenyl]-4-[[6-(2-methoxyethoxymethyl)-3-pyridyl]sulfonimidoyl]benzamide]
21 | 500 to 2000 | < 100 | N=S(=O)(c1ccc(C(=O)Nc2cc(-c3ccc(F)cc3)ccc2N)cc1)c1ccc(F)cn1 (stereo not drawn) [Compound 247, N-[2-amino-5-(4-fluorophenyl)phenyl]-4-[(5-fluoro-2-pyridyl)sulfonimidoyl]benzamide]
22 | 500 to 2000 | < 100 | CS(=N)(=O)c1cc2cc(C(=O)Nc3cc(-c4ccc(F)cc4)ccc3N)ccc2o1 (stereo not drawn) [Compound 248, N-[2-amino-5-(4-fluorophenyl)phenyl]-2-(methylsulfonimidoyl)benzofuran-5-carboxamide]
23 | 500 to 2000 | < 100 | N=S(=O)(c1ccc(C(=O)Nc2cc(-c3ccc(F)cc3)ccc2N)cc1)c1cncc(CO)c1 (stereo not drawn) [Compound 250, N-(4-amino-4′-fluoro-[1,1′-biphenyl]-3-yl)-4-(5-(hydroxymethyl)pyridine-3-sulfonimidoyl)benzamide]
24 | 500 to 2000 | < 100 | CS(=N)(=O)C1(c2ccc(C(=O)Nc3cc(-c4ccc(F)cc4)ccc3N)cc2)CC1 (stereo not drawn) [Compound 251, N-[2-amino-5-(4-fluorophenyl)phenyl]-4-[1-(methylsulfonimidoyl)cyclopropyl]benzamide]
25 | > 2000 | < 100 | CC(O)c1ccc(-c2ccc(N)c(NC(=O)c3ccc(S(C)(=N)=O)cc3)c2)s1 (stereo not drawn) [Compound 255, N-[2-amino-5-[5-(1-hydroxyethyl)-2-thienyl]phenyl]-4-(methylsulfonimidoyl)benzamide]
26 | 100 to 500 | < 100 | N=S(=O)(c1ccc(C(=O)Nc2cc(-c3ccc(F)cc3)ccc2N)cc1)c1ncc[nH]1 (stereo not drawn) [Compound 257, N-[2-amino-5-(4-fluorophenyl)phenyl]-4-(1H-imidazol-2-ylsulfonimidoyl)benzamide]
27 | 500 to 2000 | < 100 | CS(=N)(=O)c1coc2cc(C(=O)Nc3cc(-c4ccc(F)cc4)ccc3N)ccc12 (stereo not drawn) [Compound 258, N-[2-amino-5-(4-fluorophenyl)phenyl]-3-(methylsulfonimidoyl)benzofuran-6-carboxamide]
